The values below come from US12403090B2, “Oral film compositions and dosage forms having precise active dissolution profiles” (Aquestive Therapeutics, Inc., priority 2018, dated 2025).

The nature of this series: Solubility of clobazam in COSF liquid mix and oral films. Type of series: physicochemical. The settings on record: API or films in 1.5 ml water; wet mass as such. The procedure: An experiment was conducted to assess the solubility of clobazam in the liquid mix (pre-drying) and oral films (COSF). Oral thin films containing 10 mg and 20 mg clobazam were prepared and then dissolved in 1.5 ml water. Two other samples were evaluated—one being the active in water (without the excipients added to the composition for oral films); and second being the liquid mix for the film but tested prior to film forming (i.e., drying).

For the compound `CN1C(=O)CC(=O)N(c2ccccc2)c2cc(Cl)ccc21` [COSF API 10 mg, clobazam], the “% Clobazam Dissolved in sample” value is 1.576% and the “Actual Clobazam (mg/ml) in supernatant” value was determined as 0.11 mg/mL.
